Source: patent publication US20220119355A1, “SATURATED-RING-FUSED DIHYDROPYRIMIDINONE OR DIHYDROTRIAZINONE COMPOUNDS AND PHARMACEUTICAL USE THEREOF” (Japan Tobacco Inc., priority 2018, published 2022)

Columns and labels:
human RORγ = biological target: T1, human RORγ (Homo sapiens, UniProt P51449); assay: In-vitro reporter gene assay for inhibitory activity against RORγ transcription, Test Method B (pFA/hRORγ LBD / pG5-Luc in CHO cells); assay type: cell-based; conditions: for EC50: luciferase reporter, CHO cells, 2 days
T1 construct: from Ser253 to Lys518 for human RORγ; expressed in transfected cells; host or cells: CHO cells (transient co-transfection with pG5-Luc)
T1 sequence (P51449 253-518): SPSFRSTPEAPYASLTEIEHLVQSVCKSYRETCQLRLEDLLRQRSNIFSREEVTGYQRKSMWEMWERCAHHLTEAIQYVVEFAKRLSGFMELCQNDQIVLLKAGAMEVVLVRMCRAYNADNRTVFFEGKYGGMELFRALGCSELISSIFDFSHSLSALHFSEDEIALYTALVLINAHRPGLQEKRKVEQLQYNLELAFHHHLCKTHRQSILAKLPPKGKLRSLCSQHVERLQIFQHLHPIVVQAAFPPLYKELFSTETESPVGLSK
Description: (§1) In-Vitro Assay for Inhibitory Activity Against RORγ Transcription
(§2) Inhibitory activity against RORγ transcription was assessed for test compounds by either of the following Test Method A or B of reporter gene assay.
(§3) cDNAs encoding human and mouse RORγ ligand binding domains (LBD) were obtained based on the sequences of human RORγ (Genbank registered number NM_005060.3) and mouse RORγ (Genbank registered number NM_011281.2) (LBD sequences: from Ser253 to Lys518 for human RORγ; from Ile251 to Lys516 for mouse RORγ).
(§4) LBD cDNAs of human and mouse RORγ were inserted into pFA-CMV vector (Agilent Technologies, Inc.), which expresses GAL4-DNA binding domain fusion protein. The resulting plasmids are hereinafter referred to as pFA/hRORγ plasmid and pFA/mRORγ plasmid, respectively.
(§5) pFA/hRORγ plasmid or pFA/mRORγ plasmid was transiently co-transfected into Chinese hamster ovary cells (CHO cells) with pG5-Luc (Promega), reporter plasmid expressing firefly luciferase in a GAL4-dependent manner.
(§6) TransIT (Registered trademark) CHO Transfection Kit (Mirus) was used to co-transfect CHO cells with the plasmids. One day prior to the assay, CHO cells were suspended in HAM F-12 Nutrient medium containing 10% (v/v) fetal bovine serum and seeded at 5.5×10^6 cells per 225 cm^2 cell culture flask each. 72 μL of TransIT (Registered trademark) CHO reagent was added into a 2 mL tube containing 1.55 mL of Opti-MEM, and then mixed and incubated at room temperature for 10 minutes. 50.4 μL of a plasmid solution containing 300 ng of pFA/hRORγ plasmid, 12000 ng of pG5-Luc plasmid, and 11700 ng of pcDNA3.1 plasmid were added into the tube and mixed gently. In the case of mouse assay, a plasmid solution containing 300 ng of pFA/mRORγ plasmid, 12000 ng of pG5-Luc plasmid, and 11700 ng of pcDNA3.1 plasmid was added, instead. The mixture was incubated at room temperature for 10 minutes. 12 μL each of CHO Mojo Reagent were then added into each tube and mixed gently. The mixture was incubated at room temperature for 10 minutes. The resulting transfection reagent was applied to the cell culture. After incubation at 37° C., 5% CO2 for 4 hours, the plasmid-transfected CHO cells were harvested by trypsin treatment. The collected cells were resuspended in culture medium and plated into a 384-well-white plate at 8,000 cells/35 μL/well. The plate was let stand at room temperature for 1 hour and then further incubated at 37° C., 5% CO2 for 3 hours. A test compound was dissolved in dimethyl sulfoxide (DMSO) to obtain a concentration of 10 mM. Each solution was serially diluted with DMSO and further diluted with culture medium just before use. The test compound solutions were added to the cells in the plate at 6 different concentrations. The final concentration of DMSO was 0.2% (v/v). After the addition of test compound, the cells were incubated at 37° C., 5% CO2 for 2 days.
(§7) RORγ transcriptional activity was detected as the intracellular luciferase activity using SteadyLite HTS Reporter Gene Assay System (Perkin Elmer). SteadyLite Reagent was diluted 2.5-fold with Extension buffer (10 mM Tricine, 0.2% (w/v) bovine serum albumin, 0.02% (v/v) Tween-20) to obtain a luciferase substrate solution. Two days after the addition of test compound, 40 μL each of the luciferase substrate solution was added into the 384-well-plate. After the incubation at room temperature for 10 minutes, luminescence of each well was measured with a microplate reader. The luciferase activity derived from the luminescence count in a vehicle-control well treated with 0.2% DMSO alone was defined as 100%, and the luciferase activity after treatment of the test compound was calculated as a percentage, %-of-control, based on the value of the vehicle-control. An EC50 value of the test compound was calculated by curve fitting. The luminescence counts at the concentration of test compound where cytotoxicity was observed were excluded from data analysis. […]

mouse RORγ = biological target: T2, mouse RORγ (Mus musculus, UniProt P51450); assay: In-vitro reporter gene assay for inhibitory activity against RORγ transcription, Test Method B (pFA/mRORγ LBD / pG5-Luc in CHO cells); assay type: cell-based; conditions: for EC50: luciferase reporter, CHO cells, 2 days
T2 construct: from Ile251 to Lys516 for mouse RORγ; expressed in transfected cells; host or cells: CHO cells (transient co-transfection with pG5-Luc)
T2 sequence (P51450 251-516): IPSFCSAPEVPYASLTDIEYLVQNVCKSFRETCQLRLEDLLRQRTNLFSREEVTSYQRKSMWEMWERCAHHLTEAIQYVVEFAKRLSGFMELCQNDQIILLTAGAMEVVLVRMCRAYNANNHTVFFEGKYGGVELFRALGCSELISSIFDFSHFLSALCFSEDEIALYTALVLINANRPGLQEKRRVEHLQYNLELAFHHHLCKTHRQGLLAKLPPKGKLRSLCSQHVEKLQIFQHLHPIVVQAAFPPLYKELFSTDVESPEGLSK
Description: as §1, §2, §3, §4, §5, §6, §7

[1] = vehicle-control 0.2% DMSO = 100%

EC50 (human RORγ) [µM] | hRORγ luciferase activity after treatment with test compound, %-of-control (human RORγ; [1]) | EC50 (mouse RORγ) [µM] | mRORγ luciferase activity after treatment with test compound, %-of-control (mouse RORγ; [1]) | SMILES
> 10 | (84%) | > 10 | (84%) | CC(C)Oc1ccc(C23CCCCC2=CN(CCC(=O)O)C(=O)N3)cc1Cl (racemic) [Example 96]
0.206 |  | 0.055 |  | CC1(C)CC(COc2ccc(C34CCCCC3=CN(CCC(=O)O)C(=O)N4)cc2Cl)C1 (racemic) [Example 100]
7.28 |  | 1.39 |  | CCCCOc1ccc(C23CCCCC2=CN(CCC(=O)O)C(=O)N3)cc1Cl (racemic) [Example 101]
0.087 |  | 0.169 |  | CC1C2=CN(C34CC(C(=O)O)(C3)C4)C(=O)NC2(c2ccc(CCC(C)(C)C)c(Cl)c2)CC1(C)C (single isomer, unassigned) [Example 34]
4.19 |  | 4.97 |  | CC1C2=CN(C34CC(C(=O)O)(C3)C4)C(=O)NC2(c2ccc(CCC(C)(C)C)c(Cl)c2)CC1(C)C (single isomer, unassigned) [Example 35]
4.94 |  | 4.37 |  | CC(C)(C)CCc1ccc([C@]23CCC(F)(F)CC2=CN(C24CC(C(=O)O)(C2)C4)C(=O)N3)cc1Cl (single isomer, unassigned) [Example 86]
0.038 |  | 0.029 |  | CC(C)(C)CCc1ccc([C@@]23CCC(F)(F)CC2=CN(C24CC(C(=O)O)(C2)C4)C(=O)N3)cc1Cl (single isomer, unassigned) [Example 87]
3.71 |  | 4.19 |  | CC1CC[C@]2(c3ccc(CCC(C)(C)C)c(Cl)c3)NC(=O)N(C34CC(C(=O)O)(C3)C4)C=C2C1 (single isomer, unassigned) [Example 89]
0.022 |  | 0.023 |  | CC1CC[C@@]2(c3ccc(CCC(C)(C)C)c(Cl)c3)NC(=O)N(C34CC(C(=O)O)(C3)C4)C=C2C1 (single isomer, unassigned) [Example 90]
0.111 |  | 0.185 |  | CC1CC[C@]2(c3ccc(CCC(C)(C)C)c(Cl)c3)NC(=O)N(C34CC(C(=O)O)(C3)C4)C=C2C1 (single isomer, unassigned) [Example 91]
0.042 |  | 0.019 |  | CC1CC[C@@]2(c3ccc(CCC(C)(C)C)c(Cl)c3)NC(=O)N(C34CC(C(=O)O)(C3)C4)C=C2C1 (single isomer, unassigned) [Example 92]
3.97 |  | 4.23 |  | CCC1CC[C@]2(c3ccc(CCC(C)(C)C)c(Cl)c3)NC(=O)N(C34CC(C(=O)O)(C3)C4)C=C2C1 (single isomer, unassigned) [Example 93]
0.046 |  | 0.082 |  | CCC1CC[C@@]2(c3ccc(CCC(C)(C)C)c(Cl)c3)NC(=O)N(C34CC(C(=O)O)(C3)C4)C=C2C1 (single isomer, unassigned) [Example 94]
0.11 |  | 0.156 |  | CC(C)(C)CCc1ccc(C23CCC(C#N)CC2=CN(C24CC(C(=O)O)(C2)C4)C(=O)N3)cc1Cl (single isomer, unassigned) [Example 97]
4.36 |  | 5.11 |  | CC(C)C1CC[C@]2(c3ccc(CCC(C)(C)C)c(Cl)c3)NC(=O)N(C34CC(C(=O)O)(C3)C4)C=C2C1 (single isomer, unassigned) [Example 98]
0.053 |  | 0.146 |  | CC(C)C1CC[C@@]2(c3ccc(CCC(C)(C)C)c(Cl)c3)NC(=O)N(C34CC(C(=O)O)(C3)C4)C=C2C1 (single isomer, unassigned) [Example 99]
3.95 |  | 4.57 |  | CC(C)(C)CCc1ccc([C@]23CCC(C)(C)CC2=CN(C24CC(C(=O)O)(C2)C4)C(=O)N3)cc1Cl (single isomer, unassigned) [Example 102]
0.026 |  | 0.046 |  | CC(C)(C)CCc1ccc([C@@]23CCC(C)(C)CC2=CN(C24CC(C(=O)O)(C2)C4)C(=O)N3)cc1Cl (single isomer, unassigned) [Example 103]
5.26 |  | 5.28 |  | CC(C)C1CC[C@]2(c3ccc(CCC(C)(C)C)c(Cl)c3)NC(=O)N([C@H]3CC[C@@H](C(=O)O)C3)C=C2C1 (single isomer, unassigned) [Example 104]
0.102 |  | 0.113 |  | CC(C)C1CC[C@@]2(c3ccc(CCC(C)(C)C)c(Cl)c3)NC(=O)N([C@H]3CC[C@@H](C(=O)O)C3)C=C2C1 (single isomer, unassigned) [Example 105]
4.4 |  | 4.78 |  | C[C@@H]1CCC2(c3ccc(CCC(C)(C)C)c(Cl)c3)NC(=O)N(C34CC(C(=O)O)(C3)C4)C=C2[C@@H]1C (single isomer, unassigned) [Example 106]
0.027 |  | 0.032 |  | C[C@H]1CCC2(c3ccc(CCC(C)(C)C)c(Cl)c3)NC(=O)N(C34CC(C(=O)O)(C3)C4)C=C2[C@@H]1C (single isomer, unassigned) [Example 107]
4.69 |  | 5.05 |  | CC1C2=CN(C34CC(C(=O)O)(C3)C4)C(=O)N[C@@]2(c2ccc(CCC(C)(C)C)c(Cl)c2)COC1(C)C (single isomer, unassigned) [Example 108]
0.033 |  | 0.036 |  | CC1C2=CN(C34CC(C(=O)O)(C3)C4)C(=O)N[C@]2(c2ccc(CCC(C)(C)C)c(Cl)c2)COC1(C)C (single isomer, unassigned) [Example 109]
0.01 |  | 0.012 |  | CC1C2=CN(C34CC(C(=O)O)(C3)C4)C(=O)N[C@]2(c2ccc(CCC(C)(C)C)c(Cl)c2)COC1(C)C (single isomer, unassigned) [Example 110]
3.45 |  | 3.66 |  | CC1CC[C@]2(c3ccc(CCC(C)(C)C)c(Cl)c3)NC(=O)N(C34CCC(C(=O)O)(C3)C4)C=C2C1 (single isomer, unassigned) [Example 111]
0.035 |  | 0.038 |  | CC1CC[C@@]2(c3ccc(CCC(C)(C)C)c(Cl)c3)NC(=O)N(C34CCC(C(=O)O)(C3)C4)C=C2C1 (single isomer, unassigned) [Example 112]
0.033 |  | 0.037 |  | C[C@H]1CCC2(c3ccc(C4C(C(C)(C)C)C4(F)F)c(Cl)c3)NC(=O)N(C34CC(C(=O)O)(C3)C4)C=C2[C@@H]1C (single isomer, unassigned) [Example 113]
0.027 |  | 0.05 |  | C[C@H]1CCC2(c3ccc(C4C(C(C)(C)C)C4(F)F)c(Cl)c3)NC(=O)N(C34CC(C(=O)O)(C3)C4)C=C2[C@@H]1C (single isomer, unassigned) [Example 114]
